{
  "source": "paper PMC12032302",
  "about": "“A20 attenuates oxidized self-DNA-mediated inflammation in acute kidney injury” (Signal Transduction and Targeted Therapy, 2025)",
  "key": {"[1]": {"test_system": "NEK7 and NLRP3 complex", "test": "interaction of NEK7 and NLRP3 complex", "assay_type": "binding", "procedure": "Cells were lysed in mild lysis buffer with a protease inhibitor cocktail (Cell Signaling Technology, Cat#5872S) on ice for 10 min to perform the coimmunoprecipitation (co-IP) assay. Samples were then centrifuged at 12,000 rpm at 4 °C for 10 min, and the supernatant was incubated with the corresponding primary antibody (anti-HA, 1:100, Cell Signaling Technology, Cat#3724S) overnight at 4 °C. On the next day, magnetic beads were added and incubated for 1 h. The immunocoprecipitated protein was washed three times by MLB and then heated with 4× Laemmli loading buffer at 100 °C for 10 min. Samples were then subjected to western blot analysis."}, "[2]": {"biological_target": "T1, HA-Tri-MUT-NEK7 (Mus musculus, UniProt Q9ES74, K130A/K140A/L132R)", "T1 construct": "3×HA; made in house; host or cells: HEK293T", "T1 sequence (Q9ES74 whole entry K130A/L132R/K140A)": "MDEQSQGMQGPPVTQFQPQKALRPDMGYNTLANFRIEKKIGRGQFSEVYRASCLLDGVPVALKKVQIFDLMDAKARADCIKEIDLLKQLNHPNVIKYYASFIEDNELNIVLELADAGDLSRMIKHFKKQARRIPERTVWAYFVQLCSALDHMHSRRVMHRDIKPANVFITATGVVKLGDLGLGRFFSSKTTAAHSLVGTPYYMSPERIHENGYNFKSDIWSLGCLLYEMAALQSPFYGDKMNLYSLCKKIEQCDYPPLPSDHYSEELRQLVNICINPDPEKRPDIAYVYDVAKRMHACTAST", "test": "BLI analysis of NEK7 and P-II, HA-Tri-MUT-NEK7", "assay_type": "binding", "details": "K130, L132 and K140 mutated, Fig. 7d", "from_the_text": "For BLI analysis, 3×HA-WT-NEK7 or 3×HA-Tri-MUT-NEK7 plasmids were transfected into HEK293T cells. Post-transfection, proteins were purified with HA antibody via coimmunoprecipitation and then eluted with 0.1 M glycine, Ph2.0. Then, samples were neutralized with 3 M NaOH and subjected to BLI analysis.\nMouse HA-NEK7, FlAG-A20, and NLRP3 cDNA were amplified by employing standard PCR techniques from a mouse cDNA library. Subsequently, diverse cDNAs were inserted into mammalian expression vectors pcDNA3.1(+), pRK5, or pCMV6 with 3×Flag or 3×HA tags. For transient transfections, Lipofectamine 3000 was utilized according to the manufacturer’s instructions.\nBio-Layer Interferometry (BLI) analysis\nThe peptide (Bootech BioScience &Technology) was immobilized separately on Octet® AR2G Biosensors (Sartorius, Lot#2308017311) at a concentration of 400 μg/ml for 500 s. Association and dissociation curves were obtained through the addition of a dilution series of recombinant human NEK7 protein (SinoBiological, CAT#11534-H20B) (39.0625 to 1250 nM) for 120 s followed by dissociation for 120 s. Interference patterns for association or dissociation were measured in real-time to generate a response profile on the Octet® System Octet 96 Red instrument (Sartorius). A 1:1 binding model was used to evaluate the Kinetic parameter."}, "[3]": {"test_system": "AKI mice", "test": "tubular injury / renal injury of AKI mice (HE histology)", "assay_type": "in vivo, mouse", "details": "Cis-treated mice; A20-derived peptide 15 mg/kg i.p., pretreated; n = 9", "procedure": "LPS (Sigma, Cat#L2630) was dissolved in PBS to 2.5 mg/mL for one-time intraperitoneal 25 mg/kg injection; deoxyribonuclease I (DNase I, Sigma, Cat#SLBV1446) was dissolved in PBS to 1 mg/mL and injected intraperitoneally at a dose of 10 mg/kg at 4 h before cisplatin or AA I injection and every 24 h after injection. Disulfiram (MedChemExpress, CAS:97-77-8) was diluted in corn oil to 12.5 mg/mL and injected 50 mg/kg intraperitoneally every 24 h after cisplatin or AA I administration. Cu(II) (Sigma, Cat#344419) was dissolved in PBS to 30 µg/mL and administered intraperitoneally 6 h before disulfiram at a dose of 0.15 mg/kg; TNF-α (Peprotech, Cat#315-01 A) was dissolved in PBS to 10 µg/mL and injected at 100 µg/kg once through the caudal vein 24 h before cisplatin injection. […] MCC950 (MedChem Express, CAS:256373-96-3) was dissolved in PBS to 5 mg/mL and injected intraperitoneally at a dose of 50 mg/kg 12 h before cisplatin or AA I injection and every 12 h after injection; berberine (APExBIO, Cat#N1368) was dissolved in PBS to 5 mg/mL and 5 mg/kg injected intraperitoneally at 36, 24 and 12 h before cisplatin; […] To supervise the effects of various treatments on survival time and rate, the mice were observed, and survival curves were generated. To investigate the specific mechanisms, whole blood was retrieved from the orbit, serum was separated through centrifugation on the 4th day, and the mice were then sacrificed by cervical dislocation. Mice were randomly assigned in experiments, while there was no blinding during the animal experiments. Renal function was evaluated based on serum creatinine level and histological features. Serum creatinine was determined in the Clinical Pharmacology Lab, Clinical Trial Center, WCH, SCU. The kidneys were extracted from euthanized mice, immediately fixed with 4% paraformaldehyde, and embedded in paraffin. Furthermore, the samples were cut into 5 µm thick sections. These tissue samples were subjected to hematoxylin-eosin (HE) and […] according to standard protocols with HE reagent (Biosharp, Cat#BL702B, BL703B) and Masson reagent (Servicebio, Cat#G1006-100ML). The pathological changes were detected through optical microscopy, and the tubulointerstitial injury score was determined as previously reported."}},
  "note": "“Also recorded” adds a separate entry of the source. Residues, ends and D or L forms follow the SMILES beside them.",
  "data": [
    {"smiles": "CSCC[C@H](NC(=O)[C@H](Cc1ccc(O)cc1)NC(=O)[C@H](CCC(N)=O)NC(=O)[C@H](CS)NC(=O)[C@H](C)NC(=O)[C@H](C)NC(=O)[C@H](Cc1c[nH]cn1)NC(=O)[C@H](CCSC)NC(=O)[C@H](CC(C)C)NC(=O)[C@H](CS)NC(=O)[C@H](CC(N)=O)NC(=O)CNC(=O)[C@H](CC(=O)O)NC(=O)CNC(=O)[C@H](CC(N)=O)NC(=O)[C@@H](NC(=O)[C@H](CCCCN)NC(=O)[C@H](CC(C)C)NC(=O)[C@H](C)NC(=O)[C@@H](NC(=O)[C@H](CC(C)C)NC(=O)[C@@H](N)CCCCN)C(C)C)[C@@H](C)O)C(=O)N[C@@H](Cc1c[nH]c2ccccc12)C(=O)NCC(=O)N[C@H](C(=O)N[C@@H](CCC(N)=O)C(=O)N[C@@H](CC(=O)O)C(=O)N[C@H](C(=O)N[C@@H](CC(=O)O)C(=O)O)[C@@H](C)O)C(C)C", "note": "[P-II] (H-KLVALKTNGDGNCLMHAACQYMWGVQDTD-OH; N-terminus and C-terminus assumed)", "values": [
      {"measurement": "interference with NEK7-NLRP3 interaction", "setting": "[1]", "result": "interfere with the interaction between NEK7 and NLRP3 through Lys140 of NEK7; also recorded: interfering the binding of NEK7 to NLRP3 complex"},
      {"measurement": "affinity of NEK7 for P-II, effect of simultaneous mutation of three residues", "setting": "[2]", "result": "abrogated the affinity of NEK7 for P-II"},
      {"measurement": "renal injury (in words)", "setting": "[3]", "result": "alleviated the serum creatinine and renal injury"}
    ]}
  ]
}
